The text below walks through data of US20230365537A1, “POLO LIKE KINASE 4 INHIBITORS” (ORIC Pharmaceuticals, Inc., priority 2021, published 2023).

For experiment [1], the target named is human recombinant PLK4 (Homo sapiens (Human), UniProt O00444). As to the kind of experiment: PLK4 Biochemical Assay (ADP-Glo). The conditions noted are these: 0.5 nM PLK4, 8.0 µM ATP, 4.7 µM MBP, 6 hours at RT. A digest of the protocol: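 Recombinant human PLK4 (added at 1.0 nM) was preincubated 15 min at RT with compound in 50 mM HEPES pH 7.5, 10 mM MgCl2, 1 mM EGTA, 1 mM DTT, 0.01% Brij-35, 0.01% BSA. ADP formed was detected by ADP-Glo luminescence (40 min ATP depletion, 30 min detection). IC50 came from a four-parameter fit.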
Chain of human recombinant PLK4 (O00444 whole entry): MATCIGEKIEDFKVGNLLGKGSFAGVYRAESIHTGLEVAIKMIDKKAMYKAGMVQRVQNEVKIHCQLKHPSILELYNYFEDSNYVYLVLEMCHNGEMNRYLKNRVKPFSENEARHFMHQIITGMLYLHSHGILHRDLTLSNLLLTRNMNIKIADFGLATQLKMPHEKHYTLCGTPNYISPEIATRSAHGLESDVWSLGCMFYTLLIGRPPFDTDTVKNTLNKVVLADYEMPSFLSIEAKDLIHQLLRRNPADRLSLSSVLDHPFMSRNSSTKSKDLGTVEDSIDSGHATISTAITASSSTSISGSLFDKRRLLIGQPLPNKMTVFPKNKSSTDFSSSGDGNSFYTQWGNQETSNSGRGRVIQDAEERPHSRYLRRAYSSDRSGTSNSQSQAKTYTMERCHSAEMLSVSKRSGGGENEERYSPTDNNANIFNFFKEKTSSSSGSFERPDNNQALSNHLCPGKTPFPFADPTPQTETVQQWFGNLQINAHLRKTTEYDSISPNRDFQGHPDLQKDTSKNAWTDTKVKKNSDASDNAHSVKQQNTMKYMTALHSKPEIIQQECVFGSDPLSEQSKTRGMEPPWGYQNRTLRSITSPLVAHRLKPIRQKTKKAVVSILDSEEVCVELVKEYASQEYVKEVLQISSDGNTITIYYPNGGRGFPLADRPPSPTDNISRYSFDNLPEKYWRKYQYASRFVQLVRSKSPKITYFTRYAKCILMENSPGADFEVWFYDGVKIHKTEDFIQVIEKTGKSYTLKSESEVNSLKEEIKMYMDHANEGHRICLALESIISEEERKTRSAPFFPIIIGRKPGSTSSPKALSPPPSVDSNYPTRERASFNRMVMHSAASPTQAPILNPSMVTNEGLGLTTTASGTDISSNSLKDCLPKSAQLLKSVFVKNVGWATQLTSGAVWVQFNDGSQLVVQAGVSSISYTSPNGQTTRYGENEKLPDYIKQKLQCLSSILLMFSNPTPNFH

Experiment [2] deals with CHP-134 cells. As to the kind of experiment: CHP134 CellTiter-Glo (CTG) Assay. It counts as cell-based. The settings on record: Homo sapiens, CHP-134, 120 h, 5 days, viable cells by CellTiter-Glo. A digest of the protocol:
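CHP-134 cells seeded at 200 cells/well for 16 h, then given nine 1:3 serial dilutions in quadruplicate at 37° C, 5% CO2. Viable cells measured by CellTiter-Glo luminescence after 5 days; IC50 calculated from curves.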

The target in experiment [3] is human recombinant Aurora A (Homo sapiens (Human), UniProt O14965). As to the kind of experiment: Aurora A Kinase Biochemical Assay (ADP-Glo). The conditions noted are these: ratio of Aurora A IC50 to PLK4 IC50 (selectivity).
Chain of human recombinant Aurora A (O14965 whole entry): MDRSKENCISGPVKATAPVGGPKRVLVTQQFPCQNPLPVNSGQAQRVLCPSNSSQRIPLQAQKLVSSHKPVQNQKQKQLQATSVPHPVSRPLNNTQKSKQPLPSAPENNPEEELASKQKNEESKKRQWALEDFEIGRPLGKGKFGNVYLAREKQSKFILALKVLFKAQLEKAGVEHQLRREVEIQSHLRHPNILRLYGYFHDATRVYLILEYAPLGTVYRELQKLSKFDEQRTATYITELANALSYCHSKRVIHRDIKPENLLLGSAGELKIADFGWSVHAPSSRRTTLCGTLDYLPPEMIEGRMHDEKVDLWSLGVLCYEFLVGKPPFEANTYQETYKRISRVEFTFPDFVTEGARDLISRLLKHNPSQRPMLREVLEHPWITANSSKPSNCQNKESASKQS
Experiment [4] has as its target human recombinant Aurora B (Homo sapiens (Human), UniProt Q96GD4). Put plainly: Aurora B Kinase Biochemical Assay (ADP-Glo). The conditions noted are these: ratio of Aurora B IC50 to PLK4 IC50 (selectivity). The gist of the method:
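Recombinant human Aurora B (20 nM in pH 7.5 HEPES buffer with MgCl2, EGTA, DTT, Brij-35, BSA) preincubated with compound 15 min at RT. ADP formed quantified by ADP-Glo luminescence after ATP depletion (40 min) and detection (30 min). IC50 from four-parameter non-linear regression.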

The structures appear in SMILES notation.

Chain of human recombinant Aurora B (Q96GD4 whole entry): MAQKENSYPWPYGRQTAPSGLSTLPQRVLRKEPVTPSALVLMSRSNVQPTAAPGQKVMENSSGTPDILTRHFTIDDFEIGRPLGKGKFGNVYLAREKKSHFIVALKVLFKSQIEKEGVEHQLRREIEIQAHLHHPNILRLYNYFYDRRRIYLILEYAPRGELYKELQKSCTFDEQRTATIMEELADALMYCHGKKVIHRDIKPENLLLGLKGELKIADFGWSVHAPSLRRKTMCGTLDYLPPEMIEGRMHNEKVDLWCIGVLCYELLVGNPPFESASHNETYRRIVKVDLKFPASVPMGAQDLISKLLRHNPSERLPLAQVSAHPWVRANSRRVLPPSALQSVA

Regarding `CCOc1cnc(SC)nc1Nc1n[nH]c2cc([C@@H]3C[C@@]34C(=O)Nc3ccc(OC)cc34)ccc12` [Example 195, (1R,2S)-2-(3-{[5-ethoxy-2-(methylsulfanyl)pyrimidin-4-yl]amino)-1H-indazol-6-yl)-5′-methoxyspiro[cyclopropane-1,3′-indol]-2′(1′H)-one], the concentration for half-maximal inhibition (IC50) in experiment [1] was found to be 1.56 nM; in experiment [2] it was 160 nM. The “[Aurora A IC50 (nM)]/[PLK4 IC50 (nM)]” value in experiment [3] turned out to be 3459.6154. For the same molecule, in experiment [4], the “[Aurora B IC50 (nM)]/[PLK4 IC50 (nM)]” value was found to be 740.3846.

As to `COc1ccc2c(c1)[C@]1(C[C@H]1c1ccc3c(Nc4nc(S(C)(=O)=O)ccc4OC)n[nH]c3c1)C(=O)N2` [Example 196, (1R,2S)-2-(3-{[6-(methanesulfonyl)-3-methoxypyridin-2-yl]amino}-1H-indazol-6-yl)-5′-methoxyspiro[cyclopropane-1,3′-indol]-2′(1′H)-one], the values for the IC50 in experiment [1] and in experiment [2] were 3.32 nM and 1670 nM, respectively. The “[Aurora A IC50 (nM)]/[PLK4 IC50 (nM)]” value in experiment [3] is 732.3689. For the same molecule, the “[Aurora B IC50 (nM)]/[PLK4 IC50 (nM)]” value in experiment [4] was 100.8137.

In the case of `COc1ccc2c(c1)[C@]1(C[C@H]1c1ccc3c(Nc4ncc(C(=O)N(C)C)cc4OC)n[nH]c3c1)C(=O)N2` [Example 197, 5-methoxy-6-({6-[(1R,2S)-5′-methoxy-2′-oxo-1′,2′-dihydrospiro[cyclopropane-1,3′-indol]-2-yl]-1H-indazol-3-yl}amino)-N,N-dimethylpyridine-3-carboxamide], the IC50 in experiment [1] came to 1.08 nM; in experiment [2], 1080 nM. The “[Aurora A IC50 (nM)]/[PLK4 IC50 (nM)]” value in experiment [3] is listed as 1243.4944. For the same molecule, the “[Aurora B IC50 (nM)]/[PLK4 IC50 (nM)]” value in experiment [4] is given as 73.8197.

In the case of `COc1ccc2c(c1)[C@]1(C[C@H]1c1ccc3c(Nc4cc(C(=O)N(C)C)ncc4OC)n[nH]c3c1)C(=O)N2` [Example 198, 5-methoxy-4-({6-[(1R,2S)-5′-methoxy-2′-oxo-1′,2′-dibydrospiro[cyclopropane-1,3′-indol]-2-yl]-1H-indazol-3-yl}amino)-N,N-dimethylpyridine-2-carboxamide], the half-inhibitory concentration (IC50) in experiment [1] was found to be 8.69 nM; in experiment [2], 10000 nM. The “[Aurora A IC50 (nM)]/[PLK4 IC50 (nM)]” value in experiment [3] worked out at 5752.4160. Further, the “[Aurora B IC50 (nM)]/[PLK4 IC50 (nM)]” value in experiment [4] came out at 5752.4160.

On to `COc1ccc2c(c1)[C@]1(C[C@H]1c1ccc3c(Nc4ccc(C(=O)N5CCOCC5)cc4OC)n[nH]c3c1)C(=O)N2` [Example 199, (1R,2S)-5′-methoxy-2-{3-[2-methoxy-4-(morpholine-4-carbonyl)anilino]-1H-indazol-6-yl}spiro[cyclopropane-1,3′-indol]-2′(1′H)-one], for which the results for the IC50 in experiment [1] and in experiment [2] were 0.716 nM and 108 nM, respectively. Also, the “[Aurora A IC50 (nM)]/[PLK4 IC50 (nM)]” value in experiment [3] was 439.9441. In experiment [4], the “[Aurora B IC50 (nM)]/[PLK4 IC50 (nM)]” value was 57.7095.

Consider `CCOc1nc(S(C)(=O)=O)ccc1Nc1n[nH]c2cc([C@@H]3C[C@@]34C(=O)Nc3ccc(OC)cc34)ccc12` [Example 202, (1R,2S)-2-(3-{[2-ethoxy-6-(methanesulfonyl)pyridin-3-yl]amino}-1H-indazol-6-yl)-5′-methoxyspiro[cyclopropane-1,3′-indol]-2′(1′H)-one], for which the values for the IC50 in experiment [1] and in experiment [2] were 2.68 nM and 422 nM, respectively. The “[Aurora A IC50 (nM)]/[PLK4 IC50 (nM)]” value in experiment [3] came out at 1031.3433. Moreover, the “[Aurora B IC50 (nM)]/[PLK4 IC50 (nM)]” value in experiment [4] came out at 321.4179.

Regarding `CCOc1cc(C(=O)N(C)C)cnc1Nc1n[nH]c2cc([C@@H]3C[C@@]34C(=O)Nc3ccc(OC)cc34)ccc12` [Example 203, 5-ethoxy-6-({6-[(1R,2S)-5′-methoxy-2′-oxo-1’,2′-dihydrospiro[cyclopropane-1,3′-indol]-2-yl]-1H-indazol-3-yl}amino)-N,N-dimethylpyridine-3-carboxamide], the figures for the half-maximal inhibitory concentration (IC50) in experiment [1] and in experiment [2] were 1.04 nM and 324 nM, respectively. Also, in experiment [3], the “[Aurora A IC50 (nM)]/[PLK4 IC50 (nM)]” value is 2922.2649. In addition, the “[Aurora B IC50 (nM)]/[PLK4 IC50 (nM)]” value in experiment [4] worked out at 333.7812.

As for `COc1ccc2c(c1)[C@]1(C[C@H]1c1ccc3c(Nc4ncc(S(=O)(=O)N(C)C)cc4OC)n[nH]c3c1)C(=O)N2` [Example 204, 5-methoxy-6-({6-[(1R,2S)-5′-methoxy-2′-oxo-1’,2′-dihydrospiro[cyclopropane-1,3′-indol]-2-yl]-1H-indazol-3-yl}amino)-N,N-dimethylpyridine-3-sulfonamide], the figures for the 50% inhibitory concentration (IC50) in experiment [1] and in experiment [2] were 0.81 nM and 122 nM, respectively. Also, the “[Aurora A IC50 (nM)]/[PLK4 IC50 (nM)]” value in experiment [3] was 342.9630. Besides, the “[Aurora B IC50 (nM)]/[PLK4 IC50 (nM)]” value in experiment [4] was 222.8395.

Regarding `COc1ccc2c(c1)[C@]1(C[C@H]1c1ccc3c(Nc4ccc(P(C)(C)=O)nc4OC)n[nH]c3c1)C(=O)N2` [Example 205, (1R,2S)-2-(3-{[6-(dimethylphosphoryl)-2-methoxypyridin-3-yl]amino}-1H-indazol-6-yl)-5′-methoxyspiro[cyclopropane-1,3′-indol]-2′(1′H)-one], the figures for the concentration for half-maximal inhibition (IC50) in experiment [1] and in experiment [2] were 1.64 nM and 3440 nM, respectively. Moreover, the “[Aurora A IC50 (nM)]/[PLK4 IC50 (nM)]” value in experiment [3] came to 737.5152. In addition, the “[Aurora B IC50 (nM)]/[PLK4 IC50 (nM)]” value in experiment [4] came out at 235.7491.

On to `CCOc1cc(S(C)(=O)=O)cnc1Nc1n[nH]c2cc([C@@H]3C[C@@]34C(=O)Nc3ccc(OC)cc34)ccc12` [Example 208, (1R,2S)-2-(3-{[3-ethoxy-5-(methanesulfonyl)pyridin-2-yl]amino}-1H-indazol-6-yl)-5′-methoxyspiro[cyclopropano-1,3′-indol]-2′(1′H)-one], for which the figures for the IC50 in experiment [1] and in experiment [2] were 0.897 nM and 402 nM, respectively. In experiment [3], the “[Aurora A IC50 (nM)]/[PLK4 IC50 (nM)]” value came out at 7904. The “[Aurora B IC50 (nM)]/[PLK4 IC50 (nM)]” value in experiment [4] turned out to be 2471.

Turning to `CCS(=O)(=O)c1ccc(Nc2n[nH]c3cc([C@@H]4C[C@@]45C(=O)Nc4ccc(OC)cc45)ccc23)c(OC)n1` [Example 209, (1R,2S)-2-(3-{[6-(ethanesulfonyl)-2-methoxypyridin-3-yl]amino}-1H-indazol-6-yl)-5′-methoxyspiro[cyclopropane-1,3′-indol]-2′(1′H)-one], the values for the IC50 in experiment [1] and in experiment [2] were 1.54 nM and 606 nM, respectively. The “[Aurora A IC50 (nM)]/[PLK4 IC50 (nM)]” value in experiment [3] amounted to 273.2595. The “[Aurora B IC50 (nM)]/[PLK4 IC50 (nM)]” value in experiment [4] was determined as 254.6519.

On to `CNS(=O)(=O)c1cc(OC)c(Nc2n[nH]c3cc([C@@H]4C[C@@]45C(=O)Nc4ccc(OC)cc45)ccc23)cc1C` [Example 210, 5-methoxy-4-({6-[(1R,2S)-5′-methoxy-2′-oxo-1′,2′-dihydrospiro[cyclopropane-1,3′-indol]-2-yl]-1H-indazol-3-yl}amino)-N,2-dimethylbenzene-1-sulfonamide], for which the half-maximal inhibitory concentration (IC50) turned out to be 1.35 nM in experiment [1] and 65.5 nM in experiment [2]. Also, in experiment [3], the “[Aurora A IC50 (nM)]/[PLK4 IC50 (nM)]” value is reported as 462.3887. Moreover, in experiment [4], the “[Aurora B IC50 (nM)]/[PLK4 IC50 (nM)]” value amounted to 316.5430.

As for `COc1ccc2c(c1)[C@]1(C[C@H]1c1ccc3c(Nc4cc(OC)c(S(N)(=O)=O)cc4OC)n[nH]c3c1)C(=O)N2` [Example 212, 2,5-Dimethoxy-4-({6-[(1R,2S)-5′-methoxy-2′-oxo-l′,2′-dihydrospiro[cyclopropane-1,3′-indol]-2-yl]-1H-indazol-3-yl}amino)benzene-1-sulfonamide], the half-inhibitory concentration (IC50) came to 1.58 nM in experiment [1] and 161 nM in experiment [2]. The “[Aurora A IC50 (nM)]/[PLK4 IC50 (nM)]” value in experiment [3] came to 353.1230. Also, the “[Aurora B IC50 (nM)]/[PLK4 IC50 (nM)]” value in experiment [4] is listed as 280.
